In PubChem BioAssay (NCI):
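Results reflect a 48-hour exposure of cells in 96-well plates to compound at five concentrations. At the GI50, growth is halved. The concentration for full growth arrest is given as TGI.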

Tests used:
Experiment in all cases: NCI tumour cell line growth inhibition, 48 h
SK-MEL-5 melanoma = tested on: SK-MEL-5 melanoma
IGROV1 ovarian = tested on: IGROV1 ovarian
HOP-62 NSCLC = tested on: HOP-62 NSCLC
UO-31 renal = tested on: UO-31 renal
OVCAR-4 ovarian = tested on: OVCAR-4 ovarian
OVCAR-8 ovarian = tested on: OVCAR-8 ovarian
KM12 colon = tested on: KM12 colon
NCI-H23 lung = tested on: NCI-H23 lung
MDA-MB-435 = tested on: MDA-MB-435
BT-549 breast = tested on: BT-549 breast

C[N+](C)(C)CC(=O)N/N=C(/C=C/c1ccccc1)CC1OC(=O)c2ccccc21 (stereo not drawn)
TGI (SK-MEL-5 melanoma): > 100 µM
TGI (IGROV1 ovarian): > 100 µM
TGI (HOP-62 NSCLC): > 100 µM
TGI (UO-31 renal): > 100 µM
TGI (OVCAR-4 ovarian): > 100 µM
TGI (OVCAR-8 ovarian): > 100 µM
TGI (KM12 colon): > 100 µM
TGI (NCI-H23 lung): > 10 µM

O=C(CCCCCCc1nc2ccc(Br)cc2[nH]1)NO
GI50 (SK-MEL-5 melanoma): 0.328 µM
TGI (SK-MEL-5 melanoma): 1.38 µM
GI50 (IGROV1 ovarian): 0.523 µM
TGI (IGROV1 ovarian): 2.45 µM
GI50 (HOP-62 NSCLC): 0.632 µM
TGI (HOP-62 NSCLC): 14.6 µM
GI50 (UO-31 renal): 0.433 µM
TGI (UO-31 renal): 5.22 µM
GI50 (MDA-MB-435): 0.277 µM
TGI (MDA-MB-435): 1.38 µM
GI50 (BT-549 breast): 1.69 µM
TGI (BT-549 breast): 32.3 µM
GI50 (OVCAR-4 ovarian): 2.43 µM
TGI (OVCAR-4 ovarian): > 100 µM
GI50 (OVCAR-8 ovarian): 0.275 µM
TGI (OVCAR-8 ovarian): 16 µM
GI50 (KM12 colon): 0.377 µM
TGI (KM12 colon): 4.18 µM
GI50 (NCI-H23 lung): 0.507 µM
TGI (NCI-H23 lung): 4.89 µM

COc1ccccc1/C=C1\COc2ccc(O)c(O)c2C1=O
GI50 (SK-MEL-5 melanoma): 1.56 µM
TGI (SK-MEL-5 melanoma): 3.18 µM
GI50 (IGROV1 ovarian): 1.46 µM
TGI (IGROV1 ovarian): 4.21 µM
GI50 (HOP-62 NSCLC): 3.1 µM
TGI (HOP-62 NSCLC): 9.54 µM
GI50 (UO-31 renal): 1.04 µM
TGI (UO-31 renal): 2.24 µM
GI50 (MDA-MB-435): 1.57 µM
TGI (MDA-MB-435): 4.96 µM
GI50 (BT-549 breast): 2.48 µM
TGI (BT-549 breast): 7.53 µM
GI50 (OVCAR-4 ovarian): 1.86 µM
TGI (OVCAR-4 ovarian): 9.55 µM
GI50 (OVCAR-8 ovarian): 2.38 µM
TGI (OVCAR-8 ovarian): > 100 µM
GI50 (KM12 colon): 1.73 µM
TGI (KM12 colon): 3.89 µM
GI50 (NCI-H23 lung): 2.04 µM
TGI (NCI-H23 lung): 6.11 µM

Clc1ccc(Cl)c(N/N=C\c2c[nH]c3ccccc23)c1
GI50 (SK-MEL-5 melanoma): 10 µM
TGI (SK-MEL-5 melanoma): 23.1 µM
GI50 (IGROV1 ovarian): 0.0611 µM
TGI (IGROV1 ovarian): 0.623 µM
GI50 (HOP-62 NSCLC): 15.2 µM
TGI (HOP-62 NSCLC): 28.4 µM
GI50 (UO-31 renal): 3.7 µM
TGI (UO-31 renal): 18.4 µM
GI50 (MDA-MB-435): 12.2 µM
TGI (MDA-MB-435): 28.1 µM
GI50 (BT-549 breast): 0.196 µM
TGI (BT-549 breast): 16.9 µM
GI50 (OVCAR-4 ovarian): 10.7 µM
TGI (OVCAR-4 ovarian): 23 µM
GI50 (OVCAR-8 ovarian): 14.9 µM
TGI (OVCAR-8 ovarian): 29.4 µM
GI50 (KM12 colon): 7.45 µM
TGI (KM12 colon): 26.3 µM
GI50 (NCI-H23 lung): 14.1 µM
TGI (NCI-H23 lung): 29.9 µM

COc1ccc(CN2CCc3c(Cl)nc(N)nc3C2=O)c(OC)c1
GI50 (SK-MEL-5 melanoma): 13.5 µM
TGI (SK-MEL-5 melanoma): 26.7 µM
GI50 (IGROV1 ovarian): 7.56 µM
TGI (IGROV1 ovarian): 26.9 µM
GI50 (HOP-62 NSCLC): 25.7 µM
TGI (HOP-62 NSCLC): 63.9 µM
GI50 (UO-31 renal): 14 µM
TGI (UO-31 renal): 43.8 µM
GI50 (MDA-MB-435): 16.4 µM
TGI (MDA-MB-435): 39.5 µM
GI50 (BT-549 breast): 16.8 µM
TGI (BT-549 breast): 42.2 µM
GI50 (OVCAR-4 ovarian): 12.6 µM
TGI (OVCAR-4 ovarian): 25.6 µM
GI50 (OVCAR-8 ovarian): 26.9 µM
TGI (OVCAR-8 ovarian): > 100 µM
GI50 (KM12 colon): 14.4 µM
TGI (KM12 colon): 28.4 µM
GI50 (NCI-H23 lung): 15.8 µM
TGI (NCI-H23 lung): 32.2 µM

CN(C)CCCn1cnc2ncccc2c1=O
TGI (SK-MEL-5 melanoma): > 100 µM
TGI (IGROV1 ovarian): > 100 µM
TGI (HOP-62 NSCLC): > 100 µM
TGI (UO-31 renal): > 100 µM
TGI (OVCAR-4 ovarian): > 100 µM
TGI (OVCAR-8 ovarian): > 100 µM
TGI (KM12 colon): > 100 µM
TGI (NCI-H23 lung): > 100 µM

CCOP1(=O)OCC2OC(n3cnc4c(N)ncnc43)C(O)C2O1 (stereo not drawn)
TGI (SK-MEL-5 melanoma): > 100 µM
TGI (IGROV1 ovarian): > 100 µM
TGI (HOP-62 NSCLC): > 100 µM
TGI (UO-31 renal): > 100 µM
TGI (MDA-MB-435): > 100 µM
TGI (BT-549 breast): > 100 µM
TGI (OVCAR-4 ovarian): > 100 µM
TGI (OVCAR-8 ovarian): > 100 µM
TGI (KM12 colon): > 100 µM

CCc1ccc(Cc2ccc(CC)c(NC(=O)C(=O)Cc3nc4ccccc4nc3C)c2CC)c(CC)c1NC(=O)C(=O)Cc1nc2ccccc2nc1C
TGI (SK-MEL-5 melanoma): > 100 µM
TGI (IGROV1 ovarian): > 100 µM
TGI (HOP-62 NSCLC): > 100 µM
TGI (UO-31 renal): 72.8 µM
TGI (OVCAR-4 ovarian): > 100 µM
TGI (OVCAR-8 ovarian): > 100 µM
TGI (KM12 colon): > 100 µM
TGI (NCI-H23 lung): > 100 µM

CN(NC(=O)/C(=C/c1ccc(O)cc1)NC(=O)c1ccccc1)c1ccnc2cc(Cl)ccc12
TGI (SK-MEL-5 melanoma): 37.5 µM
TGI (IGROV1 ovarian): 34.1 µM
TGI (HOP-62 NSCLC): 30.1 µM
TGI (UO-31 renal): 18.6 µM
TGI (MDA-MB-435): 32.3 µM
TGI (OVCAR-4 ovarian): 33.6 µM
TGI (OVCAR-8 ovarian): 47 µM
TGI (KM12 colon): 35.8 µM

CCCCNC(=S)Nn1c(-c2ccccc2)nc2ccccc2c1=O
TGI (SK-MEL-5 melanoma): > 100 µM
TGI (IGROV1 ovarian): > 100 µM
TGI (HOP-62 NSCLC): > 100 µM
TGI (UO-31 renal): > 100 µM
TGI (OVCAR-4 ovarian): > 100 µM
TGI (OVCAR-8 ovarian): > 100 µM
TGI (KM12 colon): > 100 µM
TGI (NCI-H23 lung): > 100 µM

O=c1[nH]nc(-c2ccccc2)c(-c2ccccc2)c1-n1nc(-c2ccccc2)c2ccccc2c1=O
TGI (SK-MEL-5 melanoma): > 100 µM
TGI (IGROV1 ovarian): > 100 µM
TGI (HOP-62 NSCLC): > 100 µM
TGI (UO-31 renal): > 100 µM
TGI (OVCAR-4 ovarian): > 100 µM
TGI (OVCAR-8 ovarian): > 100 µM
TGI (KM12 colon): > 100 µM
TGI (NCI-H23 lung): > 100 µM

CCC12C=CCN3CC[C@]4(C(=C(C(=O)OC)[C@@H]1Nc1ncnc5c1ncn5C1OC(COC(C)=O)C(OC(C)=O)C1OC(C)=O)Nc1ccccc14)C32 (stereo partly drawn)
TGI (SK-MEL-5 melanoma): 8.47 µM
TGI (IGROV1 ovarian): 7.31 µM
TGI (HOP-62 NSCLC): 5.83 µM
TGI (UO-31 renal): 13.2 µM
TGI (OVCAR-4 ovarian): 5.23 µM
TGI (OVCAR-8 ovarian): 4.67 µM
TGI (KM12 colon): 5.51 µM
TGI (NCI-H23 lung): 4.06 µM

COC(=O)C1=Cc2cc3c(cc2[C@H](c2ccc4c(c2)OCO4)C1C(=O)OC)OCO3 (stereo partly drawn)
TGI (SK-MEL-5 melanoma): > 100 µM
TGI (IGROV1 ovarian): > 100 µM
TGI (HOP-62 NSCLC): > 100 µM
TGI (UO-31 renal): > 100 µM
TGI (OVCAR-4 ovarian): > 100 µM
TGI (OVCAR-8 ovarian): > 100 µM
TGI (KM12 colon): > 100 µM
TGI (NCI-H23 lung): > 100 µM

CC/C(=C(\c1ccccc1)c1ccc(OCCN(C)C)cc1)c1ccccc1
GI50 (SK-MEL-5 melanoma): 0.852 µM
GI50 (IGROV1 ovarian): 4.44 µM
GI50 (UO-31 renal): 5.73 µM
GI50 (MDA-MB-435): 2.66 µM
GI50 (BT-549 breast): 6.8 µM
GI50 (OVCAR-8 ovarian): 5.35 µM
GI50 (KM12 colon): 2.55 µM
GI50 (NCI-H23 lung): 3.68 µM

CCN(CC)CCN(C)CC(C)(C)C(=O)/C=C/c1ccccc1
TGI (SK-MEL-5 melanoma): 27.3 µM
TGI (IGROV1 ovarian): 36.5 µM
TGI (HOP-62 NSCLC): 37 µM
TGI (UO-31 renal): 26.2 µM
TGI (OVCAR-4 ovarian): 24.3 µM
TGI (OVCAR-8 ovarian): 43.2 µM
TGI (KM12 colon): 25.4 µM
TGI (NCI-H23 lung): 25.7 µM

CCOC(=O)c1cc2c(n1Cc1cccc(OC)c1)-c1oncc1CC2
GI50 (SK-MEL-5 melanoma): 0.595 µM
TGI (SK-MEL-5 melanoma): 11.3 µM
GI50 (IGROV1 ovarian): 0.78 µM
TGI (IGROV1 ovarian): > 100 µM
GI50 (HOP-62 NSCLC): 0.86 µM
TGI (HOP-62 NSCLC): > 100 µM
GI50 (UO-31 renal): 1.91 µM
TGI (UO-31 renal): 78.5 µM
GI50 (OVCAR-4 ovarian): 9.6 µM
TGI (OVCAR-4 ovarian): > 100 µM
GI50 (OVCAR-8 ovarian): 10.3 µM
TGI (OVCAR-8 ovarian): > 100 µM
GI50 (KM12 colon): 0.55 µM
TGI (KM12 colon): > 100 µM
GI50 (NCI-H23 lung): 3.42 µM
TGI (NCI-H23 lung): > 100 µM

COC1CCC(=C2C(=O)OC(C)(C)OC2=O)N1 (stereo not drawn)
TGI (IGROV1 ovarian): > 100 µM
TGI (HOP-62 NSCLC): > 100 µM
TGI (UO-31 renal): > 100 µM
TGI (OVCAR-4 ovarian): > 100 µM
TGI (OVCAR-8 ovarian): > 100 µM
TGI (KM12 colon): > 100 µM
TGI (NCI-H23 lung): > 100 µM

COc1ccc(CN(O)C2C(CO)OC(n3cc(I)c(=O)[nH]c3=O)C2O)cc1 (stereo not drawn)
TGI (SK-MEL-5 melanoma): > 100 µM
TGI (IGROV1 ovarian): > 100 µM
TGI (HOP-62 NSCLC): > 100 µM
TGI (UO-31 renal): > 100 µM
TGI (OVCAR-4 ovarian): > 100 µM
TGI (OVCAR-8 ovarian): > 100 µM
TGI (KM12 colon): > 100 µM
TGI (NCI-H23 lung): > 100 µM

Cc1cc2c(-c3nc4ccccc4[nH]3)c(O)c(O)cc2c(O)c1-c1c(C)cc2c(-c3nc4ccccc4[nH]3)c(O)c(O)cc2c1O
GI50 (IGROV1 ovarian): 0.0416 µM
TGI (IGROV1 ovarian): > 23.1 µM
GI50 (HOP-62 NSCLC): 0.0717 µM
TGI (HOP-62 NSCLC): 0.864 µM
GI50 (UO-31 renal): 0.042 µM
TGI (UO-31 renal): 0.218 µM
GI50 (MDA-MB-435): 0.0248 µM
TGI (MDA-MB-435): 18.3 µM
GI50 (BT-549 breast): 0.0235 µM
TGI (BT-549 breast): 1.13 µM
GI50 (OVCAR-4 ovarian): 0.0384 µM
TGI (OVCAR-4 ovarian): 16.8 µM
GI50 (OVCAR-8 ovarian): 0.0664 µM
TGI (OVCAR-8 ovarian): > 50 µM
GI50 (KM12 colon): 0.017 µM
TGI (KM12 colon): 0.775 µM
GI50 (NCI-H23 lung): 0.0289 µM
TGI (NCI-H23 lung): 1.07 µM
